Assay [1] deals with F/V cells (angiogenic endothelial cells of foetal bovine aorta). In words: Proliferation test on F/V cells. Format: cell-based. The following applies: for sensitivity of F/V cells compared with F/0 cells to anti-angiogenic agent: F/V versus F/0 cells, seeded at low density (5000), FIG. 4. The procedure: (§1) FIG. 5A relates in particular to the action of the type 3 antibodies on the proliferation of the F/V cells of angiogenic phenotype. FIG. 5B relates to the action of the type 3 antibodies on the proliferation of the F/O non-angiogenic cells. The test carried out is a proliferation test as described in the examples. The cells are cultured in DMEM supplemented with 5% newborn calf serum to which is added either no angiogenic factor (condition 0), or 2 ng/ml VEGF (condition VEGF), or 2 ng/ml FGF-2 (condition FGF-2). The antibody is added at the same time as the angiogenic factors, at variable concentrations (0, 1, 3 or 7 μg/ml).
(§2) The test carried out is a proliferation test as described in the examples. The cells are cultured in DMEM supplemented with 5% newborn calf serum. The antibody is added at the same time as the angiogenic factors, at variable concentrations (0, 50 or 100 μg/ml).
12-well plates are seeded at a low density (5000 to 10,000 cells/well), in DMEM medium with 8% serum. After 24 hours, the proliferation of the cells is stimulated by the addition of a range of growth factor, anti-angiogenic medicaments (methoxyestradiol, fumagillin, SU5416 targeted on VEGF-R2—Plouët et al., 2001) or antibodies of the present invention. The cells are restimulated after 48 hours and then after a total of five days in culture the cells are trypsinated and counted with a Coulter counter.
The F/0 and F/V cells are seeded at a low density (5000) as indicated and three drugs are inoculated separately, 2 of which are of unknown mechanism (Methoxyestradiol-ME-2 and fumagillin—FUMA) and 1 interfering with VEGF-R2 (SU 5416) inhibiting kinase activity.

For assay [2], the system named is F/0 cells (non-angiogenic endothelial cells of foetal bovine aorta). Nature of the assay: Proliferation test on F/0 cells. The class given is cell-based. The procedure: as §1, §2
12-well plates are seeded at a low density (5000 to 10,000 cells/well), in DMEM medium with 8% serum. After 24 hours, the proliferation of the cells is stimulated by the addition of a range of growth factor, anti-angiogenic medicaments (methoxyestradiol, fumagillin, SU5416 targeted on VEGF-R2—Plouët et al., 2001) or antibodies of the present invention. The cells are restimulated after 48 hours and then after a total of five days in culture the cells are trypsinated and counted with a Coulter counter. […]

Entries after “also recorded” stand apart in the source; their conditions may differ.

`Cc1cc(C)c(/C=C2\C(=O)Nc3ccccc32)[nH]1` [SU 5416]: the “sensitivity of F/V cells compared with F/0 cells to anti-angiogenic agent” value in assay [1] was “much more sensitive”.
Still for that read-out and setting: as for `CO[C@@H]1[C@H](OC(=O)/C=C/C=C/C=C/C=C/C(=O)O)CC[C@]2(CO2)[C@H]1[C@@]1(C)O[C@@H]1CC=C(C)C` [fumagillin], the entry is “identically sensitive; also recorded: equally sensitive”; as for `COc1cc2c(cc1O)CC[C@@H]1[C@@H]2CC[C@]2(C)[C@@H](O)CC[C@@H]12` [methoxyestradiol], “identically sensitive; also recorded: equally sensitive”.
On to VEGF, for which, in assay [2], the “proliferation under the action of VEGF (in words)” value is reported as “do not proliferate”. For the same molecule, the “ED 50 of mitogenic action” value in assay [1] (F/V cells) worked out at 0.3 ng/mL.

The record behind these values is patent US20060263827A1, “Novel endothelial cells, antibodies directed against said cells and use thereof, in particular for screening angiogenesis inhibiting substances” (priority 2002, published 2006).
